Reference: PubChem BioAssay AID248 (DTP/NCI, 2004)
Where “and” joins values, the source holds several entries; their conditions need not be identical. Equal entries are not always repeated. Inconclusive results and toxic doses are left out.

Tested on: L1210 leukemia ip in BDF1 mice, survival T/C
Assay: NCI In Vivo Anticancer Drug Screen. Data for tumor model L1210 Leukemia (intraperitoneal) in B6D2F1 (BDF1) mice
Conditions: endpoint: mean survival time, higher = longer survival
Summary of the method: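 Value reflects the ratio of survival in compound-treated mice to survival in vehicle-treated controls, with both groups carrying the same transplanted tumor.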

[1] = dose: 100.0 mg/kg/injection, schedule: Q01DX009 (ip), vehicle: Klucel (hydroxypropylcellulose) (HPC)
[2] = dose: 200.0 mg/kg/injection, schedule: Q01DX009 (ip), vehicle: Klucel (hydroxypropylcellulose) (HPC)
[3] = dose: 100.0 mg/kg/injection, schedule: Q01DX001 (ip), vehicle: saline
[4] = dose: 200.0 mg/kg/injection, schedule: Q01DX001 (ip), vehicle: saline
[5] = dose: 400.0 mg/kg/injection, schedule: Q01DX001 (ip), vehicle: saline
[6] = dose: 50.0 mg/kg/injection, schedule: Q01DX001 (ip), vehicle: saline
[7] = dose: 100.0 mg/kg/injection, schedule: Q01DX009 (ip), vehicle: saline with Tween-80
[8] = dose: 200.0 mg/kg/injection, schedule: Q01DX009 (ip), vehicle: saline with Tween-80
[9] = dose: 400.0 mg/kg/injection, schedule: Q01DX009 (ip), vehicle: saline with Tween-80
[10] = dose: 100.0 mg/kg/injection, schedule: Q01DX009 (ip), vehicle: saline
[11] = dose: 100.0 mg/kg/injection, schedule: Q04DX003 (ip), vehicle: saline
[12] = dose: 200.0 mg/kg/injection, schedule: Q01DX009 (ip), vehicle: saline
[13] = dose: 200.0 mg/kg/injection, schedule: Q04DX003 (ip), vehicle: saline
[14] = dose: 400.0 mg/kg/injection, schedule: Q01DX009 (ip), vehicle: saline
[15] = dose: 400.0 mg/kg/injection, schedule: Q04DX003 (ip), vehicle: saline
[16] = dose: 100.0 mg/kg/injection, schedule: Q04DX003 (ip), vehicle: saline with Tween-80
[17] = dose: 200.0 mg/kg/injection, schedule: Q04DX003 (ip), vehicle: saline with Tween-80
[18] = dose: 400.0 mg/kg/injection, schedule: Q04DX003 (ip), vehicle: saline with Tween-80
[19] = dose: 400.0 mg/kg/injection, schedule: Q01DX009 (ip), vehicle: Klucel (hydroxypropylcellulose) (HPC)
[20] = dose: 100.0 mg/kg/injection, schedule: Q01DX009 (ip), vehicle: other
[21] = dose: 100.0 mg/kg/injection, schedule: Q04DX002 (ip), vehicle: Klucel (hydroxypropylcellulose) (HPC)
[22] = dose: 200.0 mg/kg/injection, schedule: Q04DX002 (ip), vehicle: Klucel (hydroxypropylcellulose) (HPC)
[23] = dose: 400.0 mg/kg/injection, schedule: Q04DX002 (ip), vehicle: Klucel (hydroxypropylcellulose) (HPC)

c1cc2c(c3c1CCCC3)CCC1CCCCC21 (centres undefined)
T/C (dose: 100.0 mg/kg/injection, schedule: Q01DX001 (ip), vehicle: carboxymethylcellulose (CMC)): 103 % of control | T/C (dose: 200.0 mg/kg/injection, schedule: Q01DX001 (ip), vehicle: carboxymethylcellulose (CMC)): 95 % of control | T/C (dose: 400.0 mg/kg/injection, schedule: Q01DX001 (ip), vehicle: carboxymethylcellulose (CMC)): 97 % of control

Nc1ncnc2sc3c(c12)CCc1ccccc1-3
T/C (dose: 50.0 mg/kg/injection, schedule: Q01DX009 (ip), vehicle: Klucel (hydroxypropylcellulose) (HPC)): 92 % of control | T/C [1]: 98 % of control | T/C [2]: 95 % of control

CCC1=C(C)CN(C)c2ccccc21
T/C [3]: 100 % of control | T/C [4]: 100 % of control | T/C [5]: 94 % of control

CCC(O)C(c1ccccc1)(c1ccccc1)C(C)CN(C)C (centres undefined)
T/C [3]: 100 % of control | T/C [4]: 97 % of control

CCCCCCCCCCCCCCCCCCNC(=O)NNC(=O)CCCC(=O)NNC(=O)NCCCCCCCCCCCCCCCCCC
T/C [6]: 91 % of control | T/C [3]: 97 % of control | T/C [4]: 100 % of control | T/C [5]: 97 % of control

OC(Cc1ccccc1)c1ccccc1 (centres undefined)
T/C [6]: 100 % of control | T/C [3]: 100 % of control | T/C [7]: 89 % of control | T/C [4]: 93 % of control | T/C [8]: 98 % of control | T/C [5]: 93 % of control | T/C [9]: 95 % of control

CCOP(=O)(OCC)C(O)c1cnc(SC)nc1N (centres undefined)
T/C [10]: 104 % of control | T/C [11]: 102 % of control | T/C [12]: 100 % of control | T/C [13]: 100 % of control | T/C [14]: 105 % of control | T/C [15]: 98 % of control

O=S(=O)(O)Sc1ncnc2nc[nH]c12
T/C (dose: 125.0 mg/kg/injection, schedule: Q01DX009 (ip), vehicle: water): 162 % of control | T/C (dose: 250.0 mg/kg/injection, schedule: Q01DX009 (ip), vehicle: water): 159 % of control | T/C (dose: 250.0 mg/kg/injection, schedule: Q04DX003 (ip), vehicle: water): 153 % of control

O=C(Nc1ccc(Cl)c(Cl)c1)c1ccc2c(c1)C(=O)OC2=O
T/C [7]: 106 % of control | T/C [8]: 106 % of control | T/C [9]: 106 % of control

COc1cc(Cl)c(CC(=O)c2c[nH]c3ccccc23)cc1OC
T/C [6]: 96 % of control | T/C [3]: 93 % of control | T/C [10]: 95 % of control | T/C [4]: 96 % of control | T/C [12]: 98 % of control | T/C [5]: 96 % of control | T/C [14]: 101 % of control

CC(C)(C)C(=O)CC(=O)C(C)(C)C.CC(C)(C)C(=O)CC(=O)C(C)(C)C.CC(C)(C)C(=O)CC(=O)C(C)(C)C.[Tb]
T/C [16]: 93 % of control | T/C [17]: 93 % of control | T/C [18]: 94 % of control

CCOP(=S)(OCC)SCc1ccc(C)cc1
T/C [16]: 98 % of control | T/C [17]: 103 % of control | T/C [18]: 110 % of control

NNC(=O)C(CSC(c1ccccc1)c1ccccc1)NC(=O)C(CSC(c1ccccc1)(c1ccccc1)c1ccccc1)NC(=O)OCc1ccccc1 (centres undefined)
T/C [1]: 97 % of control | T/C [2]: 97 % of control | T/C [19]: 94 % of control

CC(=O)Oc1c(Br)c(-c2c(C)cc(C)c(Br)c2C)c(OC(C)=O)c(Br)c1-c1c(C)cc(C)c(Br)c1C
T/C [1]: 97 % of control | T/C [11]: 113 % of control | T/C [2]: 96 % of control | T/C [13]: 95 % of control | T/C [19]: 97 % of control | T/C [15]: 101 % of control

CC(C)(C)NC(=O)Nc1nccs1
T/C [20]: 100 % of control | T/C (dose: 200.0 mg/kg/injection, schedule: Q01DX009 (ip), vehicle: other): 107 % of control

Cc1[o+]c(C)c2c(c1C)-c1ccccc1C2=O
T/C (dose: 50.0 mg/kg/injection, schedule: Q01DX009 (ip), vehicle: saline with Tween-80): 93 % of control | T/C [7]: 96 % of control | T/C [16]: 98 % of control | T/C [8]: 105 % of control | T/C [17]: 98 % of control | T/C [18]: 98 % of control

COC(=O)c1ccc2cc(C(=O)OC)ccc2c1
T/C (dose: 50.0 mg/kg/injection, schedule: Q04DX003 (ip), vehicle: Klucel (hydroxypropylcellulose) (HPC)): 105 % of control | T/C (dose: 100.0 mg/kg/injection, schedule: Q04DX003 (ip), vehicle: Klucel (hydroxypropylcellulose) (HPC)): 105 % of control | T/C (dose: 200.0 mg/kg/injection, schedule: Q04DX003 (ip), vehicle: Klucel (hydroxypropylcellulose) (HPC)): 101 % of control

C/C=C\C(=O)O
T/C [10]: 101 % of control | T/C [12]: 96 % of control

CCN(C(=O)C(F)(F)F)C(C)(C)C(SSSC(c1ccc(Cl)cc1)C(C)(C)N(CC)C(=O)C(F)(F)F)c1ccc(Cl)cc1 (centres undefined)
T/C [20]: 94 % of control

CN(C(=O)/C=C/c1ccccc1)C1CCCCC1
T/C [1]: 101 % of control | T/C [2]: 110 % of control | T/C [19]: 111 % of control

CCCCOP(=O)(NC1CCCCC1)OCCCC
T/C (dose: 50.0 mg/kg/injection, schedule: Q04DX002 (ip), vehicle: saline with Tween-80): 107 % of control | T/C (dose: 100.0 mg/kg/injection, schedule: Q04DX002 (ip), vehicle: saline with Tween-80): 96 % of control | T/C (dose: 200.0 mg/kg/injection, schedule: Q04DX002 (ip), vehicle: saline with Tween-80): 104 % of control

CCOc1c(Br)cc(Br)cc1C=O
T/C [7]: 97 % of control | T/C [16]: 103 % of control | T/C [8]: 94 % of control | T/C [17]: 109 % of control | T/C [9]: 110 % of control | T/C [18]: 103 % of control

COc1ccccc1N1C(=O)CSC1=S
T/C [7]: 102 % of control | T/C [8]: 106 % of control | T/C [9]: 100 % of control

COC(=O)C(N)CCCCNC(c1ccccc1)(c1ccccc1)c1ccccc1 (centres undefined)
T/C (dose: 50.0 mg/kg/injection, schedule: Q01DX009 (ip), vehicle: saline): 107 % of control | T/C [10]: 86 % of control

CC(C)C(=O)OCC(=O)c1ccc(-c2ccccc2)cc1
T/C [3]: 100 % of control | T/C [4]: 94 % of control | T/C [5]: 111 % of control

O=C(NCCCNC(=O)Nc1ccc(C2=NCCCN2)cc1)Nc1ccc(C2=NCCCN2)cc1
T/C (dose: 10.0 mg/kg/injection, schedule: Q01DX015 (ip), vehicle: methylcellulose (MC)): 103 % of control | T/C (dose: 20.0 mg/kg/injection, schedule: Q01DX015 (ip), vehicle: methylcellulose (MC)): 103 % of control

CC/C=C/C1(C(C)C)C(=O)NC(=O)NC1=O (tested in a mixture with another compound)
T/C (dose: 75.0 mg/kg/injection, schedule: Q01DX001 (ip), vehicle: saline): 100 % of control | T/C (dose: 150.0 mg/kg/injection, schedule: Q01DX001 (ip), vehicle: saline): 94 % of control | T/C (dose: 300.0 mg/kg/injection, schedule: Q01DX001 (ip), vehicle: saline): 94 % of control

CC(=O)c1cccc(NC(=O)COc2cc(Cl)c(Cl)cc2Cl)c1
T/C [21]: 106 % of control | T/C [22]: 113 % of control | T/C [23]: 102 % of control

COc1ccc(OC)c(Br)c1
T/C [7]: 102 % of control | T/C [16]: 100 % of control | T/C [8]: 107 % of control | T/C [17]: 100 % of control | T/C [9]: 110 % of control | T/C [18]: 104 % of control

CC(=O)C(N)CCC(=O)O (centres undefined)
T/C [10]: 106 % of control | T/C [11]: 97 % of control | T/C [12]: 101 % of control | T/C [13]: 97 % of control | T/C [14]: 95 % of control | T/C [15]: 94 % of control

C=C1c2ccccc2N(C)C1(COc1ccc(Cl)c(C)c1)OC(=O)c1cccc(Cl)c1 (centres undefined)
T/C [21]: 95 % of control | T/C [22]: 95 % of control | T/C [23]: 88 % of control

O=C(Nc1ccc(C2=NCCCN2)cc1)Nc1ccc(C2=NCCCN2)cc1
T/C (dose: 0.31 mg/kg/injection, schedule: Q01DX Z (ip), vehicle: saline): 94 % of control | T/C (dose: 0.63 mg/kg/injection, schedule: Q01DX Z (ip), vehicle: saline): 110 % of control | T/C (dose: 1.25 mg/kg/injection, schedule: Q01DX Z (ip), vehicle: saline): 114 % of control and 119 % of control | T/C (dose: 2.5 mg/kg/injection, schedule: Q01DX Z (ip), vehicle: saline): 114 % of control | T/C (dose: 4.4 mg/kg/injection, schedule: Q01DX Z (ip), vehicle: saline): 96 % of control

O=c1cc(C(O)c2ccccc2)c2cccc3c2n1CCC3 (centres undefined)
T/C [7]: 95 % of control | T/C [16]: 98 % of control | T/C [8]: 95 % of control | T/C [17]: 95 % of control | T/C [9]: 101 % of control | T/C [18]: 89 % of control
